In patent US20190388389A1, “METHODS AND COMPOSITIONS OF CARNOSOL FOR INHIBITING UVB-INDUCED SKIN DAMAGE” (Ohio University, priority 2017, published 2019):

What was measured:
Format in all cases: cell-based, Human
[1] = tested on: intracellular ROS level in HaCaT cells; assay: ROS measurement with CM-H2DCFDA after UVB radiation; conditions: for ROS level post-UVB: UVB 50 mJ/cm^2, 6 h, UVB alone 2.1-fold
Experimental: FIG. 2: Dose dependent effect of carnosol on UVB-induced intracellular ROS level. HaCaT cells were seeded in 96 well plate and incubated with CM-H2DCFDA dye one hour prior to UVB exposure, with or without carnosol treatment. ROS was measured at 6 h post UVB radiation with indicated concentration of carnosol treatment using ex490/em520 nm. The data represents three to five sets of independent experiments. *p<0.05 versus corresponded control group, **p<0.05 versus UV alone.
FIGS. 3A-3B: Time dependent effect of carnosol on UVB-induced intracellular ROS level. HaCaT cells were seeded in 96 well plate and CM-H2DCFDA dye was used to measure intracellular ROS level. Carnosol (20 μM) was added to cells 1 h prior to UVB exposure, and ROS level was measured at 20 min intervals post UVB. (FIG. 3A) Intracellular ROS level at 20 min intervals with or without carnosol treatment. (FIG. 3B) Statistical analysis of intracellular ROS level at 240, 480, 720 min post UVB radiation with or without carnosol (20 μM) treatment. *p<0.05 versus corresponded control group, **p<0.05 versus corresponded UV group.
UVB was generated from a Bench XX-Series UV Lamp (UVP Inc.) equipped with two 15-watt UVB tubes (UVP Inc.). The intensity of UVB was calibrated by a UVP model UVX digital radiometer (UVP Inc.) after the lamps warmed up for 5 min. For irradiating cells, the dose rate for 8 mJ/cm^2 or 50 mJ/cm^2 of UVB radiation was 0.8 or 3.8 mW/s respectively. Medium was removed before exposing the cells to UVB. After UVB radiation, fresh medium was added to the culture plates with or without drugs, and the cells were continue incubating at 37° C. with 5% CO2 until further analysis. Carnosol was disovled in DMSO and was irradiated with 50 mJ/cm^2 of UVB radiation at a dose rate of 3.8 mW/s before subjecting to cells or structure analysis using Mass Spectrum.
Carnosol (Cayman) (FIG. 1) was added to cells at indicated concentration at 1 h before exposing the cells to UVB radiation. After radiation, cells were continuously incubated with or without carnosol in the medium until further analysis.
CM-H2DCFDA (Invitrogen) was used to measure the total ROS level in cells. CM-H2DCFDA was dissolved in DMSO to a stock solution of 500 μM and diluted in PBS to final concentration of 5 μM. CM-H2DCFDA was added into cells 1 h prior to UVB exposure and the reading of fluorescence dye was recorded every 20 minutes using luminometer (Molecular devices Spectra Max M2).

IκB = assay: Western blot for IκB protein level, HaCaT cells
Experimental: FIGS. 7A-7F: Carnosol inhibited UVB-induced NF-κB activation. Cells were exposed to UVB radiation in the presence or absence of carnosol. Cells were lysed at indicated time point and protein levels were measured by western blot analysis. (FIG. 7A) Western blot for IκB protein level in HaCaT cells at 2, 4 h post UVB radiation at 1, 10 or 20 μM carnosol treatment. (FIG. 7B) Western blot analysis for IκB protein level in HaCaT cells at 6 h post UVB radiation in the presence or absence of carnosol. (FIG. 7C) Western blot analysis for IκB protein level in MEF cells at 6 h post UVB radiation in the presence or absence of carnosol. (FIG. 7D) Western blot for 5276 site phosphorylation of NF-κB in HaCaT cells at 6 h post UVB with indicated carnosol concentration. (FIG. 7E) EMSA assay for HaCaT cells at 2, 4, 6 h post UVB radiation in the presence or absence of carnosol (20 μM). (FIG. 7F) Statistical analysis of the EMSA assay using two to three sets of independent experiments. *p<0.05 versus control group, **p<0.05 versus UV group at indicated time point.
Cells were lysed with Nonidet P-40 (NP-40) lysis buffer (2% NP-40, 80 mM NaCl, 100 mM Tris-HCl pH 8.0, 0.1% SDS) with proteinase inhibitor mixture (Complete™, Roche Molecular Biochemicals) at indicated time point. […] Protein concentration was measured by Protein DC Assay kit (Bio-Rad Laboratories). […]

HaCaT cells = assay: HaCaT transformation in soft agar after repeated UVB; conditions: 10 mJ/cm^2 UVB every 48 h for 14 days, soft agar 10 days; UVB alone about 3.5 fold
Experimental: FIG. 8: Carnosol decreases HaCaT transformation rate upon UVB radiation. HaCaT cells were exposed to 10 mJ/cm^2 UVB radiation every 48 h for 14 days. Cells were then collected and equal amount of cells were then re-seeded into 96 well plate with soft agar. After 10 days of incubation, cells were stained and dissolved and the fluorescent intensity was determined. *p<0.05 versus control group, **p<0.05 versus UV group.
HaCaT cells were exposed to 10 mJ/cm^2 UVB radiation every 48 h for 14 days. As only cancerous cells can survive in the soft-agar, by staining the survival cells with fluorescent dye, the cell transformation rate was determined.

CC(C)c1cc2c(c(O)c1O)[C@@]13CCCC(C)(C)[C@@H]1C[C@@H]2OC3=O [carnosol]
ROS level post-UVB ([1]; 0.1 μM carnosol): not statistically significantly changed | ROS level post-UVB ([1]; 0.5 μM carnosol): not statistically significantly changed | ROS level post-UVB ([1]; 10 μM carnosol): about 1.5 fold | ROS level in the irradiated cells ([1]; 20 μM carnosol, 20 min to 10 h post-UVB): continuously reduces | decrease of ROS level ([1]; 20 μM carnosol, 240 min after UVB): ~30% | decrease of ROS level ([1]; 20 μM carnosol, 480 min after UVB): ~30% | decrease of ROS level ([1]; 20 μM carnosol, 720 min after UVB): ~30% | ROS level post-UVB ([1]; 20 μM carnosol): ~1.3 fold | decrease of ROS level ([1]; 20 μM carnosol, immediately after UVB treatment): 20% | ROS level in untreated cells ([1]; 20 μM carnosol, no UVB, 20 min intervals up to 12 h): did not statistically significant affect | ROS level post-UVB ([1]; 30 μM carnosol): ~1.3 fold | ROS level ([1]; carnosol alone 0.1 μM to 30 μM, no UVB (Control), 6 h): no statistic significant effect | IκB protein level (IκB; HaCaT, 2, 4 h post UVB, dose dependent (1, 10, 20 μM)): protects IκB level | IκB protein level (IκB; HaCaT, 6 h post UVB): protection exists at least until 6 h | cell transformation (HaCaT cells): about 2.2 fold
